Peptide text beside a SMILES is read from it.
Experiments:
[1] = test system: GabaA, Benzodiazepine (Central) Site; assay: GabaA, Benzodiazepine (Central) Site Binding Assay; set-up: species or system Bovine
[2] = extracts from Experiment 5; tested only in apple and strawberry
[3] = Taste test: sweetness of materials infused with sweetening agents; conditions: apples, strawberries
Excerpt: Apples, strawberries, carrots and celery were infused with either aspartame or saccharin with standard procedures, as described above, and sweetness was compared with untreated control. […] Clearly an optimal amount of sweetening agent would be lower. The taste test was repeated using a 0.2% concentration of each sweetening agent with the four biological materials.

[4] = Taste test: taste or "heat" of materials infused with capsaicin; conditions: carrots, apples and squash infused with 2% capsaicin
Excerpt: Carrots, apples and squash were infused with 2% capsaicin (the active constituent of cayenne pepper) with standard procedures, as described above, and the taste or “heat” of the infused materials was compared with untreated control materials.

[5] = carrots and celery infused with standard procedures
[6] = carrots and celery, 0.2% concentration of sweetening agent

| SMILES | sweetness compared with untreated control [3, 5] | sweetness compared with untreated control [3, 6] | also measured |
| --- | --- | --- | --- |
| CN1C(=O)CN=C(c2ccccc2F)c2cc([N+](=O)[O-])ccc21 [Flunitrazepam, flunitrazepam] |  |  | specific binding of extract containing the infused agent ([1]; extracts from Experiment 5, tested only in celery and tomato): demonstrated specific binding |
| C[C@]1(O)CC[C@H]2[C@@H]3CCC4=CC(=O)CCC4=C3C=C[C@@]21C [Methyltrienolone, methyltrienolone] |  |  | specific binding of extract containing the infused agent [2]: demonstrated specific binding |
| CN1C(=O)CN=C(c2ccccc2F)c2cc([N+](=O)[O-])ccc21 [[^3H] Flunitrazepam] |  |  | Kd ([1]; assay characteristic of the radioligand, bovine cortical membranes, read-out: KD (binding affinity)): 1.4 nM |
| COC(=O)[C@H](Cc1ccccc1)NC(=O)[C@@H](N)CC(=O)O [aspartame] (H-Asp-Phe-OMe) | markedly and significantly sweeter | significantly enhanced over the untreated controls |  |
| COc1cc(CNC(=O)CCCCC=CC(C)C)ccc1O [capsaicin, 8-methyl-N-vanillyl-6-nonenamide] |  |  | taste or "heat" compared with untreated control [4]: markedly and significantly “hotter” |
| O=C1NS(=O)(=O)c2ccccc21 [saccharin] | markedly and significantly sweeter | significantly enhanced over the untreated controls |  |

Reference: patent US6660310B2, “Method to infuse fresh fruits and vegetables with an agent” (American Moxie LLC, priority 2000, dated 2003)
